# Earlier results in PMC11915028 (ACS Pharmacology & Translational Science, 2025).
# Target: PSMA expression in PCa lesions (Homo sapiens, UniProt Q04609)
# Text: High tumor-to-background ratios are required for the detection of small cancer/metastatic lesions. The required ratio is ∼10 for the detection of lesions with about 1 cm diameter, but for the detection of smaller lesions (0.3 cm), the required ratio should be almost 90.[30]
# Chain of PSMA expression in PCa lesions (Q04609 whole entry): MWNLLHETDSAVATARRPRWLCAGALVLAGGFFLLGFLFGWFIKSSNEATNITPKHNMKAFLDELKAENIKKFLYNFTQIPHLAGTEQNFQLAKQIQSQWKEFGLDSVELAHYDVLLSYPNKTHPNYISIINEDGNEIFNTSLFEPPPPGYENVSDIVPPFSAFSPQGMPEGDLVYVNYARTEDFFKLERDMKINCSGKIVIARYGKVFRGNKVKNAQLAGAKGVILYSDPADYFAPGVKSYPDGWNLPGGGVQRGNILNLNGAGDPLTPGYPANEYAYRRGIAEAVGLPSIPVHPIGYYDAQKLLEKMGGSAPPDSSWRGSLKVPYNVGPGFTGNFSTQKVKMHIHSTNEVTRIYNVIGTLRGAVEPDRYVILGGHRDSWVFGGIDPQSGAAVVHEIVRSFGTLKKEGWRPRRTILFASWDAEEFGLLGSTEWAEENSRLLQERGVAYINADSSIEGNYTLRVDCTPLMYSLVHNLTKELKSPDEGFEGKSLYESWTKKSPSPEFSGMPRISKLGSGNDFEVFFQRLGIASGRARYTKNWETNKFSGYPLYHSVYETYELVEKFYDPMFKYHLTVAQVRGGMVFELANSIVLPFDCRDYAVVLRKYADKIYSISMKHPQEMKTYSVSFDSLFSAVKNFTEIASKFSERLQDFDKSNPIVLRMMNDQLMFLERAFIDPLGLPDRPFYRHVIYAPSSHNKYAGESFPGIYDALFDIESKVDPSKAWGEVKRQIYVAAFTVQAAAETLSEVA
smiles,measurement,setting,value
O=C([O-])CN(CCN(CC(=O)[O-])Cc1cc(CCC(=O)NCCCCCC(=O)NCCCC[C@H](NC(=O)N[C@@H](CCC(=O)O)C(=O)O)C(=O)O)ccc1[O-])Cc1cc(CCC(=O)O)ccc1[O-].[68Ga+3].[OH3+] [[^68Ga]Ga-PSMA-11],"SUVmax, local recurrences of PCa","PET, three hours post-administration",3–39
same,"SUVmax, normal prostate gland tissue","human, in vivo",2−4
